Experimental data reported in PubChem BioAssay AID624382 (Sanford-Burnham Center for Chemical Genomics, 2012).
Activity calls are given as the source filed them. How the calls were made is not given here.

Biological target: Small ubiquitin-related modifier 1 (Homo sapiens) (UniProt P63165)
Experiment: SUMO1 protein interaction blockers, potency – biochemical, fluorescence polarization, uHTS hits, dose response (AID 624382)
Settings: SUMO1 peptide binding

Small ubiquitin-related modifier 1 (Homo sapiens), sequence (P63165 whole entry, looked up): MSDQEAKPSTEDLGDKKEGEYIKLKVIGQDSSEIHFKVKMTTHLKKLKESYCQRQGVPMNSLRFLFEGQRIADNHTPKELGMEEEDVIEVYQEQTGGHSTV

Structure (SMILES)	IC50
C[c-]1[c-](C)[c-](C)[c-](C)[c-]1C.[Fe].c1cc2nccc(N3CCCC3)[c-]2c1 (stereo not drawn)	11.9 µM
C=Cc1c(C)c2cc3[nH]c(cc4nc(cc5nc(cc1[nH]2)C(C)=C5CCC(=O)O)C(CCC(=O)O)=C4C)c(C)c3C=C	> 66.6 µM (inactive)
CCN(CC)P(=O)(NC(=O)C(Cl)(Cl)Cl)N(CC)CC.[Cl-].[Cl-].[Cl-].[Nd+3]	> 66.6 µM (inactive)
